According to publication PMC10202359, “Nicotinamide N-methyltransferase (NNMT) regulates the glucocorticoid signaling pathway during the early phase of adipogenesis” (Scientific Reports, 2023):

Experiments:
METTL21A = METTL21A (Homo sapiens, UniProt Q8WXB1); assay: Methyltransferase Hot Spot radioisotope assay, METTL21A; type: biochemical; conditions: 10-dose, threefold dilution; CC-410 from 300 μM, control from 100 μM; substrate HSPA8-[CTD]
Method: (§1) CC-410 was screened in biochemical assays for activity against a panel of 11 methyltransferases (MT) by using the radioisotope (3H-AdoMet) based MT Hot Spot Assay. All the assays were performed by Reaction Biology Corporation (RBC, Malven, PA, USA). Briefly CC-410 was incubated with the selected MTs, corresponding substrates, and radiolabeled SAM (S-Adenosyl-L-[methyl-3 H]methionine). […] Reaction mixtures were incubated and spotted onto filter papers, which were then washed to remove unreacted SAM, leaving the bound radiolabeled product. Detection of the radiolabeled, methylated product was performed via a nanoliter-scale radioisotope filter binding platform. […] For each assay, control compounds were included as positive controls for enzyme function and assay reproducibility. […] IC50 was calculated by non-linear least square fitting dose–response curve.

PRMT3 = PRMT3 (Homo sapiens, UniProt O60678); assay: Methyltransferase Hot Spot radioisotope assay, PRMT3; type: biochemical; conditions: text and Fig. 4D curve fit; read-out: IC50 for PRMT3
Chain of PRMT3 (O60678 whole entry, species assumed): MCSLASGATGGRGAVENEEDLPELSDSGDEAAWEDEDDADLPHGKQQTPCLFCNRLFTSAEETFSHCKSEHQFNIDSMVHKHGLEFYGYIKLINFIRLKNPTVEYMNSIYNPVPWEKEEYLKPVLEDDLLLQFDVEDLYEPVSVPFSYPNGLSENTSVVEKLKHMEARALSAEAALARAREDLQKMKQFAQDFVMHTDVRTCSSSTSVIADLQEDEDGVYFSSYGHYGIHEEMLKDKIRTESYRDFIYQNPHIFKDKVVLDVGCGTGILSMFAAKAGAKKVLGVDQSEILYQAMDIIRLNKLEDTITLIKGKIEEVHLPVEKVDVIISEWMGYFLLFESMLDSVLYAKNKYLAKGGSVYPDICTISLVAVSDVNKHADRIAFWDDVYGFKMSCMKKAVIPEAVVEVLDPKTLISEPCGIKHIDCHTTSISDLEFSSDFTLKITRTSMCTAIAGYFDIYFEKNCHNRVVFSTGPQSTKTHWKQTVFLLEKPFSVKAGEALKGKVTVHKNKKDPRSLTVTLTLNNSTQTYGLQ
Method: as §1

[1] = Lilly Open Innovation Drug Discovery high throughput screening
From the text: CC-410 chemical structure was initially submitted to the Open Innovation Drug Discovery program[39] (Lilly Research Laboratories, Eli Lilly and Company, Indianapolis, USA), and it was selected for its novelty and drug-like properties, based on cheminformatic evaluation. Briefly, the submitted molecular structure was firstly processed based on the Lilly Medical Chemistry Rules, which are aimed at identifying and eventually excluding from screening those compounds that may interfere with biological assays. Next, structure-based filters, including MW, cLogP, solubility and toxicity among others were analyzed to select molecules with high druggable features. Additionally, the compound was also filtered based on the number of heavy atoms, number of rings, number of aromatic rings, ring size and other physicochemical properties. Solubility and permeability of the compound were also considered for the screening. For molecules passing the cheminformatic evaluation a substance check and comparison with known drugs (both Lilly and PubChem collections) was performed in order to select for novelty. Once the molecule passed this selection it was physically submitted to be tested with a high throughput screening study, querying the activity of the molecule against a wide variety of possible therapeutic targets.

3T3-L1 cells = assay: Oil Red-O staining of adipocyte differentiation, 3T3-L1; type: cell-based, mouse; conditions: for reduction of adipogenesis (Oil Red-O quantification) compared to untreated control: treatment throughout the differentiation process (during adipogenesis)
Method: (§2) 3T3-L1 Mouse Embryonic Fibroblasts were purchased from American Type Culture Collection (ATCC CL-173). The cells were propagated and maintained in Dulbecco’s modified Eagle’s medium (DMEM, Gibco) supplemented with 10% calf serum (FCS) at 37 °C in 5% CO2 atmosphere. Subconfluents cells were expanded and utilized for the subsequent experiments at the passages 3–6. To induce differentiation, 2-day post-confluent 3T3-L1 pre-adipocytes were cultured for 48 h with DIM (DMEM supplemented with 10% fetal bovine serum (FBS), 1.0 µM Dexamethasone (G. Biosciences), […] Insulin (Sigma) and 0.5 mM IBMX (Sigma). Two days after induction the DIM medium was removed and the cells were maintained in DMED supplemented with 10% FBS and […] Insulin, which was replaced every 48 h, until the cells became fully differentiated (8–10 days after induction). C3H10T1/2 cells were purchased from American Type Culture Collection (ATCC, clone 8, CCL-226, were grown and induced to differentiate following the same protocol, with cell cultures < 3 passages. Oil Red-O staining was used as previously described. Briefly, cells were fixed for 30 min with 4% formaldehyde, stained with filtered Oil Red solution (0.2% oil red in 40% 2-propanol) and washed 5 times with distilled water. The accumulation of fat droplets in the cells was visualized and photographed under an inverted microscope (DMi1, Leica). The dye was eluted with 100% 2-propanol and quantified spectroscopically at 510 nm (Synergy HT, Bio-Tek).

C3H10T1/2 cells = assay: Oil Red-O staining of adipocyte differentiation, C3H10T1/2; type: cell-based, mouse; conditions: 25 µM, first 48 h of DIM induction or throughout the period of differentiation
Method: as §2, with “The accumulation of fat droplets in the cells was visualized and photographed under an inverted microscope (DMi1, Leica).” left out

Chain of METTL21A (Q8WXB1 whole entry, species assumed): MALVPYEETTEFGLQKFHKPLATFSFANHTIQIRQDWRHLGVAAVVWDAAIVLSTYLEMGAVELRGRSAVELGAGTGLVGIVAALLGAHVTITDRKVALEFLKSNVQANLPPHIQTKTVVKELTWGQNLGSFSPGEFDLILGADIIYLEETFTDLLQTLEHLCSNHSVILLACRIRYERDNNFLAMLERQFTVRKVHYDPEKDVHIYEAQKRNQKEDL

Compound: COC(=O)CCC(C)C1CCC2C3C(N)CC4CC(OC(C)=O)CCC4(C)[C@H]3CC(N)C12C (stereo in doubt) [CC-410, Methyl-(4S)-4-((3S,5S,7S,8S,10R,12R,13S,14R,17S)-3-acetoxy-7,12-diamino-10,13-dimethylhexadecahydro-1H-cyclopenta[a]phenanthren-17-yl) pentanoate]
- IC50* (M) METTL21A (METTL21A): no inhibition or compound activity that could not be fitted to an IC50 curve
- IC50 (PRMT3): 104 µM
- activity against a wide variety of possible therapeutic targets [1]: exclusive inhibitory activity against human NNMT
- reduction of adipogenesis (Oil Red-O quantification) compared to untreated control (3T3-L1 cells; 15 µM): 60%
- reduction of adipogenesis (Oil Red-O quantification) compared to untreated control (3T3-L1 cells; 25 µM): 80%
- inhibition of adipogenesis (3T3-L1 cells; administered in the first 20 h after hormonal induction, highest concentration tested): 50%
- effect on adipogenesis (3T3-L1 cells; continuously dispensed after the early phase of adipogenesis): no anti-adipogenic effect was evident
- effect on adipogenesis (3T3-L1 cells; treatment during the 48 h of DEX stimulation, followed by IBMX 48 h): strongly impaired adipogenesis
- effect on adipogenesis (3T3-L1 cells; treatment during the early phase (from T0 to 48 h)): markedly reduced adipogenesis, with levels analogous to continuous treatment
- effect on adipogenesis (C3H10T1/2 cells): effectively inhibit adipogenesis
